The target of one data set is PI3Kβ (Homo sapiens, UniProt P42338). Description: Fluorescent determination of PI3Kinase enzyme activity (HTRF), PI3Kβ. Type of data set: biochemical.
Another data set has as its target PI3Kα (Homo sapiens, UniProt P42336). Description: Fluorescent determination of PI3Kinase enzyme activity (HTRF), PI3Kα. Type of data set: biochemical.
A further data set deals with PI3Kδ (Homo sapiens, UniProt O00329). Briefly: Fluorescent determination of PI3Kinase enzyme activity (HTRF), PI3Kδ. Type of data set: biochemical. As to conditions: 100 nM (underlined values: 300 nM).
The next data set concerns the target PI3Kγ (Homo sapiens, UniProt P48736). Briefly: Fluorescent determination of PI3Kinase enzyme activity (HTRF), PI3Kγ. Particulars: 100 nM (underlined values: 300 nM). Type of data set: biochemical.

The structures appear in SMILES notation.

Chain of PI3Kβ (P42338 whole entry): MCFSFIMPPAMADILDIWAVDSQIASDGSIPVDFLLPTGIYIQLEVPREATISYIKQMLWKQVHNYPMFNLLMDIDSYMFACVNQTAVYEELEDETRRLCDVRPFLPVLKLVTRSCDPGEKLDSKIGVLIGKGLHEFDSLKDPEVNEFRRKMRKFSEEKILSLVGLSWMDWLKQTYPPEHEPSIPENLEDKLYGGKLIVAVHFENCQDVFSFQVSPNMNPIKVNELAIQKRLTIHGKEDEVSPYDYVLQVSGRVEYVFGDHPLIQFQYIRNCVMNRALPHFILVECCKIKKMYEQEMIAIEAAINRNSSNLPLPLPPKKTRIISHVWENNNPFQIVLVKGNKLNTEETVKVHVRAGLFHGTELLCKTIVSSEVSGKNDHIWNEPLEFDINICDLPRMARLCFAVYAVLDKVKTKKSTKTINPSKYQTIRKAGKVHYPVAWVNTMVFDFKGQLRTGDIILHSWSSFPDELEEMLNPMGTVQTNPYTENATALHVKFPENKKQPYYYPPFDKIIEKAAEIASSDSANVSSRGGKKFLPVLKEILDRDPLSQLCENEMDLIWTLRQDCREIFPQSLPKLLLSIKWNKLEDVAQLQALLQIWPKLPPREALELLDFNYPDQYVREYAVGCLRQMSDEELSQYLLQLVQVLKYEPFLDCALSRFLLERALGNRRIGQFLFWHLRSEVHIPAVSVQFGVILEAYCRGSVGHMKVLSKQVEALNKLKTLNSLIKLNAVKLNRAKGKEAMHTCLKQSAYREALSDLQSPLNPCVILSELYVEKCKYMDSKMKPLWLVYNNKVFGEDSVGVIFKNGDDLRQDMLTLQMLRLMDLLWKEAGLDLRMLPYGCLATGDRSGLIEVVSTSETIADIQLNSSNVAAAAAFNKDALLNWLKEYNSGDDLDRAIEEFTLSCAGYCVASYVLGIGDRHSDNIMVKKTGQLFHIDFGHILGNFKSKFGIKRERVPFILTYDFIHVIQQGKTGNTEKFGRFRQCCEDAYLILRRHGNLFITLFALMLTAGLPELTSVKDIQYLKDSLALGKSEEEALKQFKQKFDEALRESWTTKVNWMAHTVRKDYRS
Chain of PI3Kβ (P27986 whole entry partner): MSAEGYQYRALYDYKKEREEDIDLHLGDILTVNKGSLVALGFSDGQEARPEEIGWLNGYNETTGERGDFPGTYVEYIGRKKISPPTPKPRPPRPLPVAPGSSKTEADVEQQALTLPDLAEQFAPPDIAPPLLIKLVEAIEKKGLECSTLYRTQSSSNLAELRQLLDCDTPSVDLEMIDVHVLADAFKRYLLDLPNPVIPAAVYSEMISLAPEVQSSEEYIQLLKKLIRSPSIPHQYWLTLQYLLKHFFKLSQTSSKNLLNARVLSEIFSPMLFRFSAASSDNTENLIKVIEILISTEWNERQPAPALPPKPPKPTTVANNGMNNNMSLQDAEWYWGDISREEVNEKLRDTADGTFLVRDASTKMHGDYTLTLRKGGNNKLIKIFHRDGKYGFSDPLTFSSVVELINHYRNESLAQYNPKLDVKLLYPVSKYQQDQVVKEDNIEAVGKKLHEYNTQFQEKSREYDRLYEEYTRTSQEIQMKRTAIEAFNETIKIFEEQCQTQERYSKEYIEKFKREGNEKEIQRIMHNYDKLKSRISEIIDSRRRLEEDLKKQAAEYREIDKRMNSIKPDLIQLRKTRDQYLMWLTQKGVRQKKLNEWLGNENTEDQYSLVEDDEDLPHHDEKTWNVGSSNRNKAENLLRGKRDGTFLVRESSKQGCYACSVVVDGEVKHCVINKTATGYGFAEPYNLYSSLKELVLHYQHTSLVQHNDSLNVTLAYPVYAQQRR
Chain of PI3Kδ (O00329 whole entry): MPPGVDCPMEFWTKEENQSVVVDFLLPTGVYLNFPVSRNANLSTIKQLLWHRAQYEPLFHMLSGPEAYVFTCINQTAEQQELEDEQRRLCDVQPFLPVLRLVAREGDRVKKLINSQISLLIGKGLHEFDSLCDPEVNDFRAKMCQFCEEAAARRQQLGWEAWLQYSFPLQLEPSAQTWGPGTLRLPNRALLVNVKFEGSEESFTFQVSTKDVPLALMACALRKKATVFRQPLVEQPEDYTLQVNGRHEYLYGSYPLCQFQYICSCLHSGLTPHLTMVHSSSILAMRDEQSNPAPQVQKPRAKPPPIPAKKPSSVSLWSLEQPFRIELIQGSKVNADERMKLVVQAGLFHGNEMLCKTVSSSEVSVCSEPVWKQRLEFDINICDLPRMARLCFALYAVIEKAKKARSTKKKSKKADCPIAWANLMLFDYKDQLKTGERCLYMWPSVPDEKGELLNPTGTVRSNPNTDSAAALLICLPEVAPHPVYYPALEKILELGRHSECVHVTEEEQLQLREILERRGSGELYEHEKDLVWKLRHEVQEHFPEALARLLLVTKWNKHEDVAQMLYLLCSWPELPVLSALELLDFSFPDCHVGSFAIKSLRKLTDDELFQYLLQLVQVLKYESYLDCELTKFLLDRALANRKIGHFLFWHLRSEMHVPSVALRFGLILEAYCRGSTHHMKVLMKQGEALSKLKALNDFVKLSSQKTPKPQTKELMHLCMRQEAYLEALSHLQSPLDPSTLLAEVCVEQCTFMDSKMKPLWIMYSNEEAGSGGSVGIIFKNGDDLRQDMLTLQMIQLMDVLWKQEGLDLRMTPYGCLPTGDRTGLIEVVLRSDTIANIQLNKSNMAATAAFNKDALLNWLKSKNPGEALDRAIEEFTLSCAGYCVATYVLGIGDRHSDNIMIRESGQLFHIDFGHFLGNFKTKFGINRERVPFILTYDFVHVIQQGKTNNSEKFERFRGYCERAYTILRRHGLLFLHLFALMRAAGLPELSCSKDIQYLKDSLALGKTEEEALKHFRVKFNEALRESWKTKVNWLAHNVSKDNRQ
Chain of PI3Kδ (P27986 whole entry partner): as the sequence (P27986 whole entry partner) above
Chain of PI3Kγ (P48736 whole entry): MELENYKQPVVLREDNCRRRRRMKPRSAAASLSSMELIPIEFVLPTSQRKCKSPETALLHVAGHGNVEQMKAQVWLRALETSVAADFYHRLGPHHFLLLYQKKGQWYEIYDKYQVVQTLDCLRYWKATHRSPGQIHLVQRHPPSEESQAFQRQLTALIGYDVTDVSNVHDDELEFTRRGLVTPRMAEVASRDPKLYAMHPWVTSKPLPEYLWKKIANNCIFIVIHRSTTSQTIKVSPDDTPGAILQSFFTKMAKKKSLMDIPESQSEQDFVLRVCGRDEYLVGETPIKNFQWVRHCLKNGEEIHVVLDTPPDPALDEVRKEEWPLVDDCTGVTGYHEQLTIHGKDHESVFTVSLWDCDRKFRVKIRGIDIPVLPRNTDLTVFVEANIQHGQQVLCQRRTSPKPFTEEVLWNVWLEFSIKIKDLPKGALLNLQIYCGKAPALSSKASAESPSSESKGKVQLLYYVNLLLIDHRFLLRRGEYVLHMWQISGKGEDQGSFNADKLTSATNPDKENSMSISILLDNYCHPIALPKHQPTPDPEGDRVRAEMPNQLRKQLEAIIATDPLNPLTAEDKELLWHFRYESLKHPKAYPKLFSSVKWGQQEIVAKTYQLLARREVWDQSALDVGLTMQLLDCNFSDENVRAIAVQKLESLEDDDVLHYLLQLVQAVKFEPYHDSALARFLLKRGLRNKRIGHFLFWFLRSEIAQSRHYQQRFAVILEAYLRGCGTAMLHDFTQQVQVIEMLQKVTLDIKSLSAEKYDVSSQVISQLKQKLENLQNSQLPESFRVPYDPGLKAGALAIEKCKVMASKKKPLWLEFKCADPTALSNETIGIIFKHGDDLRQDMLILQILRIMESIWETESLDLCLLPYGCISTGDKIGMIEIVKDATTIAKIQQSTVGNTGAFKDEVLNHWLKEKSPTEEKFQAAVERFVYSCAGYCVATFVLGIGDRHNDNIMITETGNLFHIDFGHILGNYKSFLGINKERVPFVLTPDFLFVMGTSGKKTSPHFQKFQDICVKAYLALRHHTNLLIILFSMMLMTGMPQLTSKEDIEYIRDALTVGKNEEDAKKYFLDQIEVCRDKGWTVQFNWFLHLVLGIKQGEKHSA
Chain of PI3Kα (P42336 whole entry): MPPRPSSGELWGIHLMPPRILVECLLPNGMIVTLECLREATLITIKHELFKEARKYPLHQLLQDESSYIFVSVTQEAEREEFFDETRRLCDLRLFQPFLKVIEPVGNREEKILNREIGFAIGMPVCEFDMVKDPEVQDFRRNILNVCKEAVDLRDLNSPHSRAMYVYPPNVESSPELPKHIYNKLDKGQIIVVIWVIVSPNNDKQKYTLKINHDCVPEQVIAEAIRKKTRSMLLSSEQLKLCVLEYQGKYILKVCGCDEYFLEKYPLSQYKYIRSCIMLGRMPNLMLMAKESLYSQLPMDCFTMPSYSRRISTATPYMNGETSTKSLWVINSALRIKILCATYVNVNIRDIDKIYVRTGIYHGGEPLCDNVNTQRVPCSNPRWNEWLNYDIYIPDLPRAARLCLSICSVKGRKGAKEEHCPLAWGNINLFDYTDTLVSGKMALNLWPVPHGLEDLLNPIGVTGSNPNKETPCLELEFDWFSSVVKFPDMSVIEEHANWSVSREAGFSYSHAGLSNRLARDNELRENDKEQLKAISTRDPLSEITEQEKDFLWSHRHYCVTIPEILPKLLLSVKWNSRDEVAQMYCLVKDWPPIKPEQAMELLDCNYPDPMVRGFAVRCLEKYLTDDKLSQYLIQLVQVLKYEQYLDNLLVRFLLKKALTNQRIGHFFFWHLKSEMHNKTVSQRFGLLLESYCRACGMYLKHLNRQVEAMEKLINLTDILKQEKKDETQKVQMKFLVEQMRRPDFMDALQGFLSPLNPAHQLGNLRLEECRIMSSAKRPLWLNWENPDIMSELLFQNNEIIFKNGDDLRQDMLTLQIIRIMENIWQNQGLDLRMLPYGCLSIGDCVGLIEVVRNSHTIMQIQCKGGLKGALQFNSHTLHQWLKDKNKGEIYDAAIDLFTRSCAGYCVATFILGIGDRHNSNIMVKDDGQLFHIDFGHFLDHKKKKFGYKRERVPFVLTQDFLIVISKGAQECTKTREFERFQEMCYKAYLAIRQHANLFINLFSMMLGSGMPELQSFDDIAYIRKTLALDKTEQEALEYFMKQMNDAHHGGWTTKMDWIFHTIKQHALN
Chain of PI3Kα (P27986 whole entry partner): as the sequence (P27986 whole entry partner) above

For `CC(c1nc2ccccc2c(=O)n1-c1ccccc1)n1nc(-c2ccc(O)c(F)c2)c2c(N)ncnc21` (centres unmarked) [Example 8, 2-(1-(4-amino-3-(3-fluoro-4-hydroxyphenyl)-1H-pyrazolo[3,4-d]pyrimidin-1-yl)ethyl)-3-phenylquinazolin-4(3H)-one], the melting point lay within 230 to 233 °C. The same molecule showed an inhibition at 1 µM on PI3Kβ of 20 to 40%. For the same molecule, the inhibition at 1 µM on PI3Kα was 0 to 10%. The same molecule had an inhibition at 0.1 µM on PI3Kδ of 20 to 40%. Besides, the inhibition at 0.1 µM against PI3Kγ fell in the range of 0 to 20%.

On to `CC(c1cc2cccc(Cl)c2c(=O)n1-c1ccccc1)n1nc(-c2ccc(O)c(F)c2)c2c(N)ncnc21` (centres unmarked) [Example 14, 3-(1-(4-amino-3-(3-fluoro-4-hydroxyphenyl)-1H-pyrazolo[3,4-d]pyrimidin-1-yl)ethyl)-8-chloro-2-phenylisoquinolin-1(2H)-one], for which the melting point was 218 to 219 °C. For the same molecule, the inhibition at 1 µM against PI3Kβ lay in the range of 60 to 80%. In addition, the inhibition at 1 µM against PI3Kα fell in the range of 20 to 40%. This molecule also showed an inhibition at 0.1 µM against PI3Kδ of 60 to 80%. Further, the inhibition at 0.1 µM at PI3Kγ was 80 to 100%.

In the case of `Cc1n[nH]c2cc(-c3nn(C(C)c4cc5cccc(Cl)c5c(=O)n4-c4ccccc4)c4ncnc(N)c34)ccc12` (centres unmarked) [Example 21, 3-(1-(4-amino-3-(3-methyl-1H-indazol-6-yl)-1H-pyrazolo[3,4-d]pyrimidin-1-yl)ethyl)-8-chloro-2-phenylisoquinolin-1(2H)-one], the melting point lay in the range of 289 to 291 °C. On PI3Kβ, this molecule had an inhibition at 1 µM of 60 to 80%. The molecule further displayed an inhibition at 1 µM at PI3Kα of 20 to 40%. This molecule also registered an inhibition at 0.1 µM on PI3Kδ of 80 to 100%. Moreover, at PI3Kγ, the inhibition at 0.1 µM fell in the range of 60 to 80%.

The molecule `COc1ccc(-c2nn([C@H](C)c3cc4cccc(Cl)c4c(=O)n3-c3ccccc3)c3ncnc(N)c23)cc1NS(C)(=O)=O` [Example 20b, (−)—N-(5-(4-amino-1-(1-(8-chloro-1-oxo-2-phenyl-1,2-dihydroisoquinolin-3-yl)ethyl)-1H-pyrazolo[3,4-d]pyrimidin-3-yl)-2-methoxyphenyl)methanesulfonamide] displayed a melting point of 180 to 183 °C. At PI3Kβ, this molecule came in with an inhibition at 1 µM of 20 to 40%. For the same molecule, the inhibition at 1 µM against PI3Kα lay within 0 to 10%. The molecule also yielded an inhibition at 0.1 µM against PI3Kδ of 20 to 40%. At PI3Kγ, this molecule displayed an inhibition at 0.1 µM of 0 to 20%.

The values are drawn from patent publication US11352359B2, “PI3K protein kinase inhibitors” (Rhizen Pharmaceuticals SA, priority 2013, dated 2022).
